One data set relates to SF 268. Put plainly: NCI in vitro 60 human tumor cell line assay. Format: cell-based. Conditions: SF-268, 48 h, read-out: Total Growth Inhibition (TGI).
The test system of the next data set is H 322M. The data set can be described thus: NCI in vitro 60 human tumor cell line assay. The settings on record: NCI-H322M, 48 h, read-out: Total Growth Inhibition (TGI). In kind it is cell-based.
The next data set concerns UO 31. The data set can be described thus: NCI in vitro 60 human tumor cell line assay. In kind it is cell-based. Conditions: UO-31, 48 h, read-out: Total Growth Inhibition (TGI).
A further data set relates to EKVX. Put plainly: NCI in vitro 60 human tumor cell line assay. The settings on record: 48 h, read-out: Total Growth Inhibition (TGI). In kind it is cell-based.
The next data set relates to U 251. Put plainly: NCI in vitro 60 human tumor cell line assay. Conditions: U-251, 48 h, read-out: Total Growth Inhibition (TGI). In kind it is cell-based.
The subject of the next data set is SK OV3. Put plainly: NCI in vitro 60 human tumor cell line assay. In kind it is cell-based. Conditions: SK-OV-3, 48 h, read-out: Total Growth Inhibition (TGI).
Data set [1] can be described thus: Lactone stability in whole blood (HPLC). The settings on record: human, whole blood, 1 μM, 37°C, lactone peak area relative to zero time (100%); read-out: Lactone Stability in Whole Blood (after 3 hours). Format: in vitro ADME. The procedure: 2. Lactone Stability in whole blood:
2 ml of blood from a healthy volunteer was collected in a tube containing 40 µl of heparin (572 IU) to prevent coagulation, 4 mM and 40 µM working solutions of the drug in DMSO were prepared and added to aliquots of whole blood to give final concentration of 100 µM and 1 µM respectively. The drug is incubated in whole blood at 37°C and 20 µl samples are collected into 180 µl of chilled methanol (-30°C) at different time intervals (0, 1, 2 & 3 hrs). Vortex and then centrifuge at 11000 rpm for 3 min in a microcentrifuge at room temperature. Dilute 100 µl of the supernatant with water to 300-500 µl depending upon the signal response (UV for 100 µM concentration and fluoroscence for 1 µM concentration) of the compound. 200 µl of the diluted sample is injected on to the HPLC column previously equilibrated with the mobile phase. The area under peak corrsponding to lactone forms is measured. Zero time peak area is taken as 100%, and the proportion of lactone peak area at different time points is calculated to determine the equilibrium lactone stability as obtained by consistent lactone proportion over two successive time points. (Biochemistry, 1994; 33:10325-10336 and J. Pharm. Sci., 1995; 84:518-519).

A further data set relates to H 226. Put plainly: NCI in vitro 60 human tumor cell line assay. Format: cell-based. Conditions: NCI-H226, 48 h, read-out: Total Growth Inhibition (TGI).
In the next data set the test system is BT 549. The data set can be described thus: NCI in vitro 60 human tumor cell line assay. In kind it is cell-based. The settings on record: BT-549, 48 h, read-out: Total Growth Inhibition (TGI).
A further data set has as its system MDA-N. The data set can be described thus: NCI in vitro 60 human tumor cell line assay. In kind it is cell-based. Conditions: BREAST, 48h, read-out: Total Growth Inhibition (TGI).
For data set [2], the system named is NCI's 60 human tumor cell line assay. The data set can be described thus: cells. In kind it is cell-based. Conditions: 60 cell, 48 h, read-out: IC50 (mean GI50 against NCI's 60 human tumor cell line assay).
Experimental: (§1) Each test compound was screened against a battery of 60 human cell lines obtained from eight organs. In a typical procedure, the cell suspensions that were diluted according to the particular cell type and the expected target cell density (5000-40,000 cells per well based on cell growth characteristics) were added into 96-well microtiter plates. Inoculates were allowed a preincubation period of 24h at 37°C. for stabilization. Dilutions at twice the intended test concentrations were added at time zero in 100-µl aliquots to microtiter plate wells. Usually test compounds were evaluated at five 10-fold dilutions. The highest well concentration used in the test is 10^-4M. The cells are then incubated in the presence of drug (the test compound) for further 48h in 5% CO2 atmosphere and 100% humidity. At the end of this time, the adherent cells are fixed to the plate by means of trichloroacetic acid, and after a number of washes, the cell layer is treated with the protein stain Sulforhodamine B. The optical density which is proportional to protein mass, is then read by automated spectrophotometric plate readers at a wavelength of 515 nm. Readings are transferred to a microcomputer and final reports are generated using especially developed software.
In another data set the test system is HCT 116. The data set can be described thus: NCI in vitro 60 human tumor cell line assay. In kind it is cell-based. The settings on record: HCT-116, 48 h, read-out: Total Growth Inhibition (TGI).
Another data set relates to KM 12. The data set can be described thus: NCI in vitro 60 human tumor cell line assay. Format: cell-based. Conditions: KM12, 48 h, read-out: Total Growth Inhibition (TGI).
In the next data set the test system is HOP 62. The data set can be described thus: NCI in vitro 60 human tumor cell line assay. In kind it is cell-based. Conditions: HOP-62, 48 h, read-out: Total Growth Inhibition (TGI).
The test system of the next data set is H 522. The data set can be described thus: NCI in vitro 60 human tumor cell line assay. In kind it is cell-based. The settings on record: NCI-H522, 48 h, read-out: Total Growth Inhibition (TGI).
For a further data set, the system named is MDA-MB-435. The data set can be described thus: NCI in vitro 60 human tumor cell line assay. In kind it is cell-based. The settings on record: MDA-MB-435, 48 h, read-out: Total Growth Inhibition (TGI).
The subject of the next data set is MCF 7/ ADR. Put plainly: NCI in vitro 60 human tumor cell line assay. In kind it is cell-based. Conditions: Homo sapiens, NCI/ADR-RES, 48 h, read-out: Total Growth Inhibition (TGI).
For another data set, the system named is HOP 92. Put plainly: NCI in vitro 60 human tumor cell line assay. Conditions: HOP-92, 48 h, read-out: Total Growth Inhibition (TGI). In kind it is cell-based.
A further data set deals with COLO 205. Put plainly: NCI in vitro 60 human tumor cell line assay. Format: cell-based. Conditions: COLO 205, 48 h, read-out: Total Growth Inhibition (TGI).
The next data set has as its system H 23. Put plainly: NCI in vitro 60 human tumor cell line assay. Format: cell-based. Conditions: NCI-H23, 48 h, read-out: Total Growth Inhibition (TGI).
Another data set deals with T 47D. Put plainly: NCI in vitro 60 human tumor cell line assay. In kind it is cell-based. Conditions: T47D, 48 h, read-out: Total Growth Inhibition (TGI).

Here are results for 2 molecules from patent EP0847397B1, “WATER-SOLUBLE C-RING ANALOGUES OF 20 (S)-CAMPTOTHECIN” (DR. REDDY'S RESEARCH FOUNDATION, priority 1996, dated 1997).

Experimental for BT 549: as §1
Experimental for COLO 205: as §1
Experimental for EKVX: as §1
Experimental for H 226: as §1
Experimental for H 23: as §1
Experimental for H 322M: as §1
Experimental for H 522: as §1
Experimental for KM 12: as §1
Experimental for MCF 7/ ADR: as §1
Experimental for MDA-N: (§2) Each test compound was screened against a battery of 60 human cell lines obtained from eight organs. In a typical procedure, the cell suspensions that were diluted according to the particular cell type and the expected target cell density (5000-40,000 cells per well based on cell growth characteristics) were added into 96-well microtiter plates. Inoculates were allowed a preincubation period of 24h at 37°C. for stabilization. Dilutions at twice the intended test concentrations were added at time zero in 100-µl aliquots to microtiter plate wells. Usually test compounds were evaluated at five 10-fold dilutions. The highest well concentration used in the test is 10^-4M. The cells are then incubated in the presence of drug (the test compound) for further 48h in 5% CO2 atmosphere and 100% humidity. At the end of this time, the adherent cells are fixed to the plate by means of trichloroacetic acid, and after a number of washes, the cell layer is treated with the protein stain Sulforhodamine B. The optical density which is proportional to protein mass, is then read by automated spectrophotometric plate readers at a wavelength of 515 nm.
Experimental for SF 268: as §2
Experimental for SK OV3: as §2
Experimental for T 47D: as §1
Experimental for U 251: as §1
Experimental for UO 31: as §1

Take `CC[C@@]1(O)C(=O)OCc2c1cc1n(c2=O)C(OCCO)c2cc3ccccc3nc2-1` (stereo partly drawn) [Example 26, 5-(2'-Hydroxyethoxy)camptothecin]: the IC (TGI) in the data set on SF 268 was found to be 30.9 µM; with H 322M, 31.6 µM; with UO 31, 3.89 µM; in the data set with EKVX, 63 µM; in the data set with U 251, 7.58 µM; with SK OV3, 3.8 µM. Besides, in [1], the remaining at 3 h, 1 µM stood at 5.3%.

`CC[C@@]1(O)C(=O)OCc2c1cc1n(c2=O)C(OCC(F)(F)F)c2cc3cc(O)ccc3nc2-1` (stereo partly drawn) [Example 27, 10-Hydroxy-5-trifluoroethoxycamptothecin]: the IC (TGI) with H 226 came out at 4.75 µM; in the data set on BT 549, 11.4 µM; in the data set with MDA-N, 11 µM; with HCT 116, 4.06 µM; in the data set with KM 12 it was 10.6 µM; in the data set with HOP 62, 4.95 µM. Besides, the IC (TGI) in the data set on H 522 came out at 7.66 µM; in the data set on MDA-MB-435, 9.62 µM; in the data set on MCF 7/ ADR it was 1.25 µM; with HOP 92, 4.88 µM; with COLO 205, 19.5 µM; in the data set on H 23, 0.91 µM. Moreover, the IC (TGI) with T 47D is 0.81 µM. In addition, in [2], the mean GI50 worked out at 0.38 µM.
